# Patent US12139744B2, “Stabilisation of biological samples” (QIAGEN GmbH, priority 2013, dated 2024)
# * marks the point of attachment. Cbz = O=C(OCc1ccccc1)*; CH2F = FC*
# Assays:
# calpain II = biological target: T1, calpain II (Homo sapiens, UniProt P17655); details: irreversible inhibitor; cited from earlier work
# T1 sequence (P17655 1-700): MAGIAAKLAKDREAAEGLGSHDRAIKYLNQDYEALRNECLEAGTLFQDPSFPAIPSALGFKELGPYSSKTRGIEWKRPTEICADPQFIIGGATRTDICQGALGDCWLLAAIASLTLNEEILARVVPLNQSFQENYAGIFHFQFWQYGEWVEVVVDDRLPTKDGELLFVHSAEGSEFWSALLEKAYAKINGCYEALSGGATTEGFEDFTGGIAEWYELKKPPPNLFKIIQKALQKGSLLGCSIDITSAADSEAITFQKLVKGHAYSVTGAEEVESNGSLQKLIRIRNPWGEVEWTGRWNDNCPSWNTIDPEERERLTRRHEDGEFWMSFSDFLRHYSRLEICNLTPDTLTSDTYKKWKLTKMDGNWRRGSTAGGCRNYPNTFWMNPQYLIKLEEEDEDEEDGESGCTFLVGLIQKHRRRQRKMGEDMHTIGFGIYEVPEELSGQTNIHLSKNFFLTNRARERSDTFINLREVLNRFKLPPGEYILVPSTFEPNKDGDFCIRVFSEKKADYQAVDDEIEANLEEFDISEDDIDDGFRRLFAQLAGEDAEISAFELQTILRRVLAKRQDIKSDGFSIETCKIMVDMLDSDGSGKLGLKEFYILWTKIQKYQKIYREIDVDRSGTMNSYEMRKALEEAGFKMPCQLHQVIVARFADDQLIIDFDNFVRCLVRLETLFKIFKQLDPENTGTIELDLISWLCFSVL
# T1 sequence (P04632 1-268 partner): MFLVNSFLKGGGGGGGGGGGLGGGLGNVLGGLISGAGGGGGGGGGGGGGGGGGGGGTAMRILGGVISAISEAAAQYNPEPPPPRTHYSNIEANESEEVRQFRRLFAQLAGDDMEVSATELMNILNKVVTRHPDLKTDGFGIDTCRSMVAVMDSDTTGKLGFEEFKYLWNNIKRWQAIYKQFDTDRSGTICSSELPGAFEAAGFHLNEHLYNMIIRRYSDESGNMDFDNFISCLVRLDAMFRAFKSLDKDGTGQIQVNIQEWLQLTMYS
# PKC = details: cited from earlier work
# cells = details: cited from earlier work
# [1] = test system: FOS, IL1B, IL8 and TP53 transcripts; experiment: Transcript level stabilisation in stored blood, real time RT-PCR; type: cell-based, human; details: blood incubated at RT for 0, 24 and 72 hours; DMPA 5% v/v final in EDTA blood, 5xMOPS pH5.5
# From the text: A test system and study setup was established that allows the identification of reagent compositions that have gene transcript stabilisation capabilities, as indicated by constant levels of transcripts from selected genes (c-fos, IL-1beta, IL-8, p53). These transcripts were identified in prior studies as very unstable transcripts during storage, which are induced or down regulated (gains and losses of transcripts) within minutes after blood collection and were therefore chosen as “worst case” markers for screening purposes.
# Blood was collected from multiple donors into replicate EDTA blood tubes (BD, [−] control of sample stabilisation) and PAXgene Blood RNA Tubes (PreAnalytiX) serving as [+] control of sample stabilisation. PAXgene Blood RNA tubes contain a composition (see also background of the invention) that lysis cells and thereby “freeze” the gene transcription profile. PAXgene Blood RNA tubes are for stabilizing blood for gene expression analysis. One aim was to find stabilization method that not based on cell lysis but achieves the same or similar performance as the PAXgene Blood RNA tubes in transcript level stabilization. […]
# Transcript levels of all RNA samples were analysed by real time RT-PCR using monoplex assays of FOS, IL1B, IL8 and TP53, normalized to the amount of template input into the reaction. […]
# blood samples = experiment: Inspection of plasma for hemolysis; type: cell-based, human; details: Example 4: 2.5% and 5% DMPA with caspase inhibitor
# From the text: The focus of the analysis was the stabilization of the extracellular nucleic acid population as determined by analyzing the increase of 18S rDNA. Shown is the increase of DNA relative to time point 0 with 2.5%, 5% and 7.5% N,N dimethylpropanamide (DMPA) or 5% DMAA with caspase inhibitor (fold change) using different amplicon lengths of 18SrRNA gene. Bars indicate the mean of the triplicate samples per condition and test time point. […] Thus, a stabilization of the extracellular nucleic acid population was achieved. Furthermore, the obtained plasma was inspected in order to analyse whether hemolysis occurred.
# CD3 on lymphocytes = experiment: aCD3 FACS analysis of cell and cell surface epitope integrity; type: cell-based, human; details: EDTA blood, test solution 5% v/v DMPA, RT 0 h, 24 h, 72 h
# Experimental: FIG. 5: Fluorescence activated cell sorting (aCD3 FACS) analysis of sample aliquots from blood collected from one donor into EDTA tubes. Blood aliquots were subjected to FACS using PE-conjugated anti-CD3 antibody from samples that were not incubated after blood collection (0 h) and samples after one and three days of incubation at RT (24 h, 72 h). The number of fluorescence-labelled cells was counted and the intensity of the fluorescence signal per event was quantified. Intensity (x-axis) and number of fluorescence signals (y-axis) are shown as histograms. Thresholds were defined to differentiate unspecific weak fluorescence signals (−) from stronger specific fluorescence signals caused by specifically bound anti-CD3 antibody to cells (+). […]
# Cell and cell surface epitope integrity was analysed by fluorescence activated cell sorting (FACS) using fluorescence conjugated anti-CD3 antibody
# In addition, cell and cell surface epitope integrity was analysed in the stabilized samples by fluorescence activated cell sorting (FACS). In detail, the presence and accessibility of cell surface proteins was analysed by binding of fluorescence conjugated antibody (PE-labelled anti-CD3) directed against cellular epitope CD3 that is specific for lymphocytes, while other white blood cell subtypes (monocytes, neutrophilic granulocytes) are CD3 negative.
# 18S ribosomal DNA = experiment: 18S rDNA increase in plasma of stored blood (qPCR, 66 bp and 500 bp amplicons); type: cell-based, human; details: for Released DNA (18S rDNA) after storage: 3 and 6 days RT, vs unstabilized EDTA blood
# Experimental: Blood obtained from donors was collected into 10 ml K2 EDTA tubes (BD). 4.5 ml of the respectively collected blood was mixed with 0.9 ml of different stabilization solutions (see below examples on the details of the tested stabilization solutions).
# All stabilized blood samples were set up in triplicates per condition and test time point. At time point 0 (reference), immediately after mixing the stabilization solution and blood, plasma was generated and the circulating extracellular DNA was extracted. The residual stabilized blood sample was stored for three days and six days at room temperature.
# Plasma was generated from the stabilized and unstabilized (EDTA) blood samples by inverting the blood containing tubes for four times. Then, the tubes were centrifuged for 10 minutes at 1900×g at 4° C. 2.5 ml of the plasma fraction was transferred into a fresh 15 ml falcon tube and centrifuged for 10 minutes at 16.000×g at 4° C. 2 ml of the respectively cleared plasma was used for extracellular nucleic acid isolation using the QIAamp circulating nucleic acid kit (QIAGEN) according to the manufacturer's instructions.
# The isolated extracellular DNA was analyzed using two different qPCR assays, targeting different fragment lengths of the 18S ribosomal DNA:
# Cycle threshholds of the individual samples were translated into amount of gDNA in the eluate, according to a gDNA standard curve. The gDNA amount of the storage time points was compared to the time zero gDNA level from the same donor and is shown as fold increase in the figures. Especially the increase of the 500 bp fragment in the plasma fraction of the blood sample after storage is an indication for a lysis/destruction of white blood cells. Thus, the lower the amount of released 500 bp DNA, the better the performance of the stabilization method.
compound,measurement,setting,value
Cbz-Leu-Leu-Tyr-CH2F [Calpain Inhibitor IV],k2 calpain II,calpain II,"= 28,900 M-1s-1). Also acts as an inhibitor of cathepsin L (k2 ="
O=c1c(O)c(-c2ccc(O)c(O)c2)oc2cc(O)cc(O)c12 [Quercetin],IC50 PKC,PKC,"15 μg/ml. It strongly abrogated PI3K and Src kinases, mildly"
Cbz-Val-Ala-Asp-CH2F,Cytotoxicity,cells,no added cytotoxic effects
"CCC(=O)N(C)C [DMPA, N,N-dimethylpropanamide]","Relative transcript levels of FOS, IL1B, IL8 and TP53 (CT values) over storage",[1],stabilised expression levels
same,Hemolysis in plasma obtained from stabilized blood,blood samples,did not show signs of hemolysis
same,Detection of lymphocytes by PE-conjugated anti-CD3 FACS,CD3 on lymphocytes,detectable for up to three days
same,Increase in 18S rDNA relative to time point 0,"18S ribosomal DNA; Example 2: DMPA […], 2% or 2.5% without caspase inhibitor, 7.2 mg K2 EDTA/ml, RT up to 6 days, vs EDTA blood",significantly reduced increase in 18S rDNA
same,Released DNA (18S rDNA) after storage,"18S ribosomal DNA; Example 3: 2.5%, 5% or 7.5% (v/v) with 1 μM Quinoline-Val-Asp-CH2-OPH and K2 EDTA",significantly lower amounts of released DNA
same,Released DNA (18S rDNA) after storage,"18S ribosomal DNA; Example 4: 2.5%, 5% or 7.5% DMPA with 1 μM caspase inhibitor, 7.2 mg K2 EDTA/ml",significantly lower amounts of released DNA
same,Increase in 18S rDNA relative to time point 0,"18S ribosomal DNA; Example 5: DMPA in different concentrations with 1 μM caspase inhibitor, 7.2 mg K2 EDTA/ml",significantly reduced increase in 18S rDNA
